We go through two compounds from ChEMBL document CHEMBL4725246, “Design, synthesis, and evaluation of a novel macrocyclic anti-EV71 agent” (Bioorg Med Chem, 2020).

Data set [1] relates to Enterovirus A71. The data set can be described thus: Antiviral activity against Enterovirus A71 SK-EV006 measured after 3 to 4 days by cell based assay. As to conditions: Enterovirus A. The format is functional, organism-based.
Data set [2] is described as follows: Stability in CD-1 mouse plasma assessed as parent compound remaining upto 120 mins by LC-MS analysis. The format is ADME, cell-free. As to conditions: read-out: Stabilty.
The test system of data set [3] is Enterovirus A71. The data set can be described thus: Antiviral activity against Enterovirus A71 Shenzhen/120F1/09 infected in human RD cells assessed as […] measured after 72 hrs post-infection by CCK-8 assay. The format is functional, organism-based. The note with it: Enterovirus A, Shenzhen/120F1/09, RD.

`Cc1cc(C(=O)N[C@@H](Cc2ccc(F)cc2)C(=O)N[C@H](C=O)C[C@@H]2CCCNC2=O)no1` returned a 50% effective concentration (EC50) in the data set on Enterovirus A71 [1] of 0.108 µM.

`Cc1cc(C(=O)N[C@H](C(=O)NC2C(=O)N[C@@H](CC3CCNC3=O)/C=C/C(=O)OC/C=C/CCOC2c2ccccc2)C(C)C)no1` (stereo partly drawn): the remaining at 2 h in data set [2] came to 5.6%. Moreover, the EC50 with Enterovirus A71 [3] was found to be 4.5 µM.
